Measurements reported in ChEMBL document CHEMBL3885881, “DrugMatrix”.

Organism: Rattus norvegicus
Test: DrugMatrix - Regimen: Daily Repeat
Type: toxicity, organism-based, Sprague-Dawley
Parameters: regimen Daily Repeat, gender Male, age 6-8 weeks
Details: in vivo, po, route oral GAVAGE, vehicle 100 % WATER; for ABSOLUTE BASOPHIL / ABSOLUTE EOSINOPHIL / ABSOLUTE LYMPHOCYTE / ABSOLUTE MONOCYTE / ABSOLUTE SEGMENTED NEUTROPHIL / BASOPHIL / EOSINOPHIL / ERYTHROCYTE COUNT / HEMATOCRIT / HEMOGLOBIN / LEUKOCYTE COUNT / LYMPHOCYTE / MEAN CORPUSCULAR HEMOGLOBIN / MEAN CORPUSCULAR HEMOGLOBIN CONCENTRATION / MEAN CORPUSCULAR VOLUME / MONOCYTE / NEUTROPHIL / NUCLEATED RED BLOOD CELLS / PLATELET COUNT: tissue Blood; for ALANINE AMINOTRANSFERASE / ALBUMIN / ALKALINE PHOSPHATASE / ASPARTATE AMINOTRANSFERASE / BLOOD UREA NITROGEN / CARBON DIOXIDE / CHLORIDE / CHOLESTEROL / CREATINE PHOSPHOKINASE / CREATININE / GLUCOSE / LACTATE DEHYDROGENASE / LIPASE / PHOSPHORUS / POTASSIUM / SODIUM / TOTAL BILIRUBIN / TOTAL PROTEIN / URIC ACID: tissue Plasma
[1] = 20 mg/kg, 120 h, dose level Low, time 5 day
[2] = 70 mg/kg, 72 h, dose level High, time 3 day
[3] = 70 mg/kg, 120 h, dose level High, time 5 day

For `CCCC(C)C1(CC)C(=O)NC(=O)NC1=O` (centres undefined) [PENTOBARBITAL], the “ABSOLUTE BASOPHIL” value [1] was 0 CELLS/uL, the “ABSOLUTE EOSINOPHIL” value [1] was 0 CELLS/uL and the “ABSOLUTE LYMPHOCYTE” value [1] was 9855 CELLS/uL. The “ABSOLUTE MONOCYTE” value [1] was 58 CELLS/uL, the “ABSOLUTE SEGMENTED NEUTROPHIL” value [1] was 1187 CELLS/uL and the BASOPHIL [1] was 0%. The EOSINOPHIL [1] was 0%, the “ERYTHROCYTE COUNT” value [1] was 5.44 x10E6/uL and the HEMATOCRIT [1] was 34.1%. For the same compound, the HEMOGLOBIN [1] was 13.23 G/DL, the “LEUKOCYTE COUNT” value [1] was 11.1 x10E3/uL and the LYMPHOCYTE [1] was 89%. For the same compound, the “MEAN CORPUSCULAR HEMOGLOBIN” value [1] was 24.33 pg, the “MEAN CORPUSCULAR HEMOGLOBIN CONCENTRATION” value [1] was 38.83 G/DL and the “MEAN CORPUSCULAR VOLUME” value [1] was 62.67 fL. For the same compound, the MONOCYTE [1] was 0.67%, the NEUTROPHIL [1] was 10.33% and the “NUCLEATED RED BLOOD CELLS” value [1] was 0 /100WBC. For the same compound, the “PLATELET COUNT” value [1] was 1231.67 x10E3/uL, the “ALANINE AMINOTRANSFERASE” value [1] was 60.33 u/L and the ALBUMIN [1] was 3.8 G/DL. For the same compound, the “ALKALINE PHOSPHATASE” value [1] was 346 u/L, the “ASPARTATE AMINOTRANSFERASE” value [1] was 88.33 u/L and the “BLOOD UREA NITROGEN” value [1] was 17 mg/dL. For the same compound, the “CARBON DIOXIDE” value [1] was 32.67 mmol/L, the CHLORIDE [1] was 99.33 MEQ/L and the CHOLESTEROL [1] was 71.67 mg/dL. The “CREATINE PHOSPHOKINASE” value [1] was 344.67 u/L, the CREATININE [1] was 0.19 mg/dL and the GLUCOSE [1] was 155 mg/dL. For the same compound, the “LACTATE DEHYDROGENASE” value [1] was 163 u/L, the LIPASE [1] was 8.67 u/L and the PHOSPHORUS [1] was 11.17 mg/dL. The POTASSIUM [1] was 5.63 MEQ/L, the SODIUM [1] was 145.17 MEQ/L and the “TOTAL BILIRUBIN” value [1] was 0.17 mg/dL. The “TOTAL PROTEIN” value [1] was 5.63 G/DL, the “URIC ACID” value [1] was 0.67 mg/dL and the “ABSOLUTE BASOPHIL” value [2] was 0 CELLS/uL. The “ABSOLUTE EOSINOPHIL” value [2] was 29 CELLS/uL, the “ABSOLUTE LYMPHOCYTE” value [2] was 9707 CELLS/uL and the “ABSOLUTE MONOCYTE” value [2] was 106.67 CELLS/uL. For the same compound, the “ABSOLUTE SEGMENTED NEUTROPHIL” value [2] was 824 CELLS/uL, the BASOPHIL [2] was 0% and the EOSINOPHIL [2] was 0.33%. For the same compound, the “ERYTHROCYTE COUNT” value [2] was 5.46 x10E6/uL, the HEMATOCRIT [2] was 34.73% and the HEMOGLOBIN [2] was 13.4 G/DL. The “LEUKOCYTE COUNT” value [2] was 10.67 x10E3/uL, the LYMPHOCYTE [2] was 91% and the “MEAN CORPUSCULAR HEMOGLOBIN” value [2] was 24.57 pg. For the same compound, the “MEAN CORPUSCULAR HEMOGLOBIN CONCENTRATION” value [2] was 38.63 G/DL, the “MEAN CORPUSCULAR VOLUME” value [2] was 63.53 fL and the MONOCYTE [2] was 1%. The NEUTROPHIL [2] was 7.67%, the “NUCLEATED RED BLOOD CELLS” value [2] was 0 /100WBC and the “PLATELET COUNT” value [2] was 792 x10E3/uL. For the same compound, the “ALANINE AMINOTRANSFERASE” value [2] was 58 u/L, the ALBUMIN [2] was 4.2 G/DL and the “ALKALINE PHOSPHATASE” value [2] was 300.33 u/L. For the same compound, the “ASPARTATE AMINOTRANSFERASE” value [2] was 75.67 u/L, the “BLOOD UREA NITROGEN” value [2] was 13 mg/dL and the “CARBON DIOXIDE” value [2] was 34.67 mmol/L. The CHLORIDE [2] was 101.33 MEQ/L, the CHOLESTEROL [2] was 81.33 mg/dL and the “CREATINE PHOSPHOKINASE” value [2] was 230 u/L. The CREATININE [2] was 0.16 mg/dL, the GLUCOSE [2] was 139 mg/dL and the “LACTATE DEHYDROGENASE” value [2] was 113.33 u/L. The LIPASE [2] was 9 u/L, the PHOSPHORUS [2] was 11.77 mg/dL and the POTASSIUM [2] was 6.23 MEQ/L. For the same compound, the SODIUM [2] was 146.57 MEQ/L, the “TOTAL BILIRUBIN” value [2] was 0.2 mg/dL and the “TOTAL PROTEIN” value [2] was 6.17 G/DL. For the same compound, the “URIC ACID” value [2] was 0.73 mg/dL, the “ABSOLUTE BASOPHIL” value [3] was 0 CELLS/uL and the “ABSOLUTE EOSINOPHIL” value [3] was 23.33 CELLS/uL. For the same compound, the “ABSOLUTE LYMPHOCYTE” value [3] was 7811.33 CELLS/uL, the “ABSOLUTE MONOCYTE” value [3] was 0 CELLS/uL and the “ABSOLUTE SEGMENTED NEUTROPHIL” value [3] was 598.67 CELLS/uL. For the same compound, the BASOPHIL [3] was 0%, the EOSINOPHIL [3] was 0.33% and the “ERYTHROCYTE COUNT” value [3] was 5.7 x10E6/uL. The HEMATOCRIT [3] was 36%, the HEMOGLOBIN [3] was 13.73 G/DL and the “LEUKOCYTE COUNT” value [3] was 8.43 x10E3/uL. The LYMPHOCYTE [3] was 92.33%, the “MEAN CORPUSCULAR HEMOGLOBIN” value [3] was 24.1 pg and the “MEAN CORPUSCULAR HEMOGLOBIN CONCENTRATION” value [3] was 38.17 G/DL. The “MEAN CORPUSCULAR VOLUME” value [3] was 63.17 fL, the MONOCYTE [3] was 0% and the NEUTROPHIL [3] was 7.33%. The “NUCLEATED RED BLOOD CELLS” value [3] was 0 /100WBC, the “PLATELET COUNT” value [3] was 1184.67 x10E3/uL and the “ALANINE AMINOTRANSFERASE” value [3] was 60 u/L. The ALBUMIN [3] was 4.2 G/DL, the “ALKALINE PHOSPHATASE” value [3] was 346 u/L and the “ASPARTATE AMINOTRANSFERASE” value [3] was 81 u/L. For the same compound, the “BLOOD UREA NITROGEN” value [3] was 14 mg/dL, the “CARBON DIOXIDE” value [3] was 33 mmol/L and the CHLORIDE [3] was 99 MEQ/L. The CHOLESTEROL [3] was 74.33 mg/dL, the “CREATINE PHOSPHOKINASE” value [3] was 461.33 u/L and the CREATININE [3] was 0.13 mg/dL. The GLUCOSE [3] was 131.67 mg/dL, the “LACTATE DEHYDROGENASE” value [3] was 142.67 u/L and the LIPASE [3] was 11.67 u/L. The PHOSPHORUS [3] was 10.57 mg/dL, the POTASSIUM [3] was 5.73 MEQ/L and the SODIUM [3] was 145.3 MEQ/L. For the same compound, the “TOTAL BILIRUBIN” value [3] was 0.2 mg/dL, the “TOTAL PROTEIN” value [3] was 6.17 G/DL and the “URIC ACID” value [3] was 0.53 mg/dL.
